Values quoted from earlier work, collected in patent US20140179719A1, “NOVEL AMORPHOUS SOLID DISPERSIONS OF VALGANCICLOVIR HYDROCHLORIDE” (priority 2012, published 2014).
Where two headings read alike, the source gives them in different places.

Conditions: ganciclovir administered orally

- bioavailability of ganciclovir, oral formulation: 6-10%
- bioavailability of ganciclovir, oral formulation (listed as gancilcovir): 6%
SMILES: Nc1nc(O)c2ncn(COC(CO)CO)c2n1 [Ganciclovir]
